{
  "source": "patent US20190300824A1",
  "about": "“BACTERIAL SPORE COMPOSITIONS FOR […]” (priority 2014, published 2019)",
  "test_system": "Eimeria maxima and Clostridium perfringens",
  "assay_type": "in vivo, Cobb 500 Chicks (Gallus gallus domesticus)",
  "conditions": "in words",
  "note": "Bridge positions count the residues as written; N and C are the ends. Square brackets hold non-standard residues; d marks the D form. Peptide text beside a SMILES is read from it. * marks the point of attachment. Ileψ(thiazoline)Cys = CC[C@H](C)[C@H](N)C1=N[C@H](C(=O)*)CS1; dOrn = NCCC[C@@H](N)C(=O)O",
  "data": [
    {"smiles": "CC[C@H](C)[C@H](N)C1=N[C@H](C(=O)N[C@@H](CC(C)C)C(=O)N[C@H](CCC(=O)O)C(=O)N[C@H](C(=O)N[C@H]2CCCCNC(=O)[C@H](CC(N)=O)NC(=O)[C@@H](CC(=O)O)NC(=O)[C@H](Cc3cnc[nH]3)NC(=O)[C@@H](Cc3ccccc3)NC(=O)[C@H]([C@@H](C)CC)NC(=O)[C@@H](CCCN)NC2=O)[C@@H](C)CC)CS1", "note": "[Treatment Group 5, Bacitracin] ({Ileψ(thiazoline)Cys}-L[dE]IK[dOrn]I[dF]H[dD]N; lactam 4-C)", "values": [
      {"measurement": "weight gain over the infected negative control", "result": "significant increase in weight gain"}
    ]}
  ]
}
